These results are taken from patent publication US12630547B2, “RAS protein degraders, pharmaceutical compositions thereof, and their therapeutic applications” (BioTheryX, Inc., priority 2019, dated 2026).

Common to all, as to assay type: cell-based
One experiment concerns MV-4-11 cells. Put plainly: Cell viability assay (CELLTITER-GLO), MV-4-11 cells. The conditions noted are these: Homo sapiens, MV4-11, 72 h; Table 1; compound at 10 μM, 3 days; read-out: Effect on MV-4-11 cell viability (% DMSO). As for the experimental part:
MOLM-13 cells, MV-4-11 cells, H23, and H358 cells were independently cultured in RPMI 1640 media supplemented with 10% fetal bovine serum, streptomycin and penicillin. The cells were plated in white walled 96-well plates at 4,000 cells/well. The cells were incubated in DMSO (control) or a compound for 3 days at 37° C. under 5% CO2. A CELLTITER-GLO® reagent (100 μL) was then added to each well. After a 10 min incubation with shaking, luminescence was measured using an ENVISION® multimode plate reader.
In Tables 1 and 2, each compound was tested at 10 μM; and in Table 3, each compound was tested at 1 μM. In Tables 1 to 3, the cell viability values as % DMSO are reported as “A,” “B,” “C,” or “D;” where “A” represents a % viability value of less than 10%; “B” represents a % viability value of no less than 10% and less than 25%; “C” represents a % viability value of no less than 25% and less than 50%; and “D” represents a % viability value of no less than 50%. Compound A is […]

The next experiment concerns MOLM-13 cells. Put plainly: Cell viability assay (CELLTITER-GLO), MOLM-13 cells. The conditions noted are these: Homo sapiens, MOLM-13, 72 h, 3 days, read-out: Effect on MOLM-13 cell viability (% DMSO); for viability at 10 µM: compound at 10 μM; for viability at 1 µM: Table 3, compound at 1 μM. In a few lines:
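Viability, as % of DMSO control, was read by CellTiter-Glo luminescence after a 3-day compound exposure (single dose of 10 μM or 1 μM) at 37 °C. Cells plated at 4,000/well in RPMI 1640 with 10% FBS. Results reported as categories A <10%, B 10–<25%, C 25–<50%, D ≥50%.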

In a further experiment the test system is H358 cells. Put plainly: Cell viability assay (CELLTITER-GLO), H358 cells. The conditions noted are these: 3 days; for viability at 10 µM: Table 1, compound at 10 μM, read-out: Effect on H358 cell viability (% DMSO). The essentials: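 Luminescent ATP read-out (CellTiter-Glo) after 3-day incubation at 37 °C of H358 cells plated at 4,000/well in RPMI 1640 with 10% FBS. Values are either IC50 bins (A ≤1 μM through D >10 μM) or % of DMSO viability at 10 μM or 1 μM, bins A <10% through D ≥50%.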

The subject of a further experiment is H23 cells. Put plainly: Cell viability assay (CELLTITER-GLO), H23 cells. The conditions noted are these: Table 4, 3 days. The essentials: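 Luminescent CellTiter-Glo readout after 3-day compound treatment (37° C, 5% CO2) of H23 cells plated at 4,000 cells/well in RPMI 1640 plus 10% FBS, DMSO as control. IC50 values given as categorical ranges.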
The next experiment addresses T1, KRAS protein (Homo sapiens, UniProt P01116, G12C).
T1 construct: endogenous in cells; host or cells: H358 cells
Put plainly: Protein degradation assay (western blot) in H358 cells. The conditions noted are these: 1 μM, 24 h. As for the experimental part: H358 cells were grown in RPMI 1640 media supplemented with 10% fetal bovine serum, streptomycin, and penicillin. The cells were plated in 10 cm plates in the growth media. The next day, the cells were rinsed in 1× PBS with the media replaced by RPMI1640 supplemented with 2.5% fetal bovine serum, streptomycin, and penicillin. The cells were then treated with 1 μM of a compound for 24 h. Whole cell extracts were prepared using an immunoprecipitation (IP) lysis buffer. Briefly, the cells were washed once in PBS, and the cell pellets were resuspended in the IP lysis buffer and incubated for 15 min on ice. Cells debris was removed by centrifugation and the cleared whole cell lysates were transferred to new tubes for further analysis.
For a western blot analysis, the whole cell protein extracts were separated on 12% SDS-polyacrylamide gels, transferred to nitrocellulose, and probed with primary antibodies. Membranes were subsequently washed and probed with IRDYE® secondary antibodies. The signals were detected using an ODYSSEY® Imaging System. The antibodies used in the assay included anti-KRAS; β-actin mouse monoclonal antibody; IRDYE® 680RD goat anti-rabbit antibody; and IRDYE® 800CW goat anti-mouse antibody.

Like-named read-outs stand apart in the source and are kept apart here.

T1 sequence (P01116 1-188 isoform P01116-2 G12C): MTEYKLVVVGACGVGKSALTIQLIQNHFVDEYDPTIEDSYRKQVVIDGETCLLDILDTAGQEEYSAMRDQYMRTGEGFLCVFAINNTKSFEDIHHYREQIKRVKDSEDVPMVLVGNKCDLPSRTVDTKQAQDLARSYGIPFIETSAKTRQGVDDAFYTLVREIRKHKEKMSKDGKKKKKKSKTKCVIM

In the case of `C=CC(=O)N1CCN(c2ncnc3c(F)c(-c4c(O)cccc4F)c(Cl)cc23)CC1` [A, 1-(4-(6-chloro-8-fluoro-7-(2-fluoro-6-hydroxyphenyl)quinazolin-4-yl)piperazin-1-yl)prop-2-en-1-one, reference compound], the viability at 10 µM is 25 to 50% with MV-4-11 cells; 25 to 50% in the experiment with MOLM-13 cells (Table 1); 25 to 50% in the experiment with H358 cells (Homo sapiens, NCI-H358, 72 h). The viability at 1 µM in the experiment with MOLM-13 cells is no less than 50%. Besides, the IC50 in the experiment on H358 cells (Homo sapiens, NCI-H358, 72 h, Table 4, read-out: Inhibition of H358 cells, IC50) turned out to be 990 nM; in the experiment with H23 cells (Homo sapiens, NCI-H23, 72 h, read-out: Inhibition of H23 cells, IC50), 4.3 µM.

Turning to `C=CC(=O)N1CCN(c2ncnc3c(F)c(-c4c(F)cccc4OCCOCCOCCC(=O)NCCNc4cccc5c4C(=O)N(C4CCC(=O)NC4=O)C5=O)c(Cl)cc23)CC1` (stereo not shown) [Compound 1, 3-(2-(2-(2-(4-(4-Acryloylpiperazin-1-yl)-6-chloro-8-fluoroquinazolin-7-yl)-3-fluorophenoxy)ethoxy)ethoxy)-N-(2-((2-(2,6-dioxopiperidin-3-yl)-1,3-dioxoisoindolin-4-yl)amino)ethyl)propanamide], the viability at 10 µM in the experiment on MV-4-11 cells lay in the range of 10 to 25%; with MOLM-13 cells (Table 1) it was 25 to 50%; with H358 cells (Homo sapiens, NCI-H358, 72 h), 25 to 50%. Besides, the viability at 1 µM in the experiment with MOLM-13 cells is no less than 50%. Also, the “Inhibition of H358 cells, IC50 (class)” value with H358 cells (Table 4) was “C′”. Moreover, the “Inhibition of H23 cells, IC50 (class)” value in the experiment with H23 cells is “C′”.

On to `C=CC(=O)N1CCN(c2ncnc3c(F)c(-c4c(F)cccc4OCCCCCCCN4CCC(c5cc(F)cc6c5CN(C5CCC(=O)NC5=O)C6=O)CC4)c(Cl)cc23)CC1` (stereo not shown) [Compound 36, 3-(4-(1-(7-(2-(4-(4-Acryloylpiperazin-1-yl)-6-chloro-8-fluoroquinazolin-7-yl)-3-fluorophenoxy)heptyl)piperidin-4-yl)-6-fluoro-1-oxoisoindolin-2-yl)piperidine-2,6-dione], for which, in the experiment on MOLM-13 cells (Table 2), the viability at 10 µM is less than 10%. The “Inhibition of H358 cells, IC50 (class)” value in the experiment on H358 cells (Table 4) is “A′”. For the same molecule, in the experiment on H23 cells, the “Inhibition of H23 cells, IC50 (class)” value is listed as “A′”. Besides, the “degradation of KRAS protein” value on KRAS protein is “about 60%”.
